Data: publication PMC6004562, “Discovery of Orally Bioavailable, Quinoline-Based Aldehyde Dehydrogenase 1A1 (ALDH1A1) Inhibitors with Potent Cellular Activity” (Journal of Medicinal Chemistry, 2018)
Read-outs that look alike come from different tables or passages of the source.

Tests used:
[1] = pharmacokinetics in CD-1 mice; type: in vivo; details: male, plasma, CD-1 mouse; for Vd: read-out: Vss; for bioavailability: po 10 mg/kg vs iv 2 mg/kg
[2] = pilot toxicity / tolerability study in CD-1 mice; details: po 50 mg/kg, QD*5, 5 days observation
[3] = mouse, in vivo, po, 50 mg/kg
[4] = Figure 1, previously reported; cited from earlier work
[5] = Figure 1, previously reported; cited from earlier work; remark: listed apart in the source
[6] = iv 2 mg/kg, observed at t = 5 min

| AUC(0-inf) ([1]; iv 2 mg/kg) | Cmax [1, 6] | Vd ([1]; iv 2 mg/kg) | AUC(0-inf) ([1]; po 10 mg/kg) | Cmax ([1]; po 10 mg/kg) | bioavailability [1] | Compound | tolerability [2] | tolerability [3] | RLM [4] | solubility [5] |
| --- | --- | --- | --- | --- | --- | --- | --- | --- | --- | --- |
| 1410 ng·h/mL | 1960 ng/mL | 2.2 L/kg | 2140 ng·h/mL | 1170 ng/mL | 30% | CN(C)C(=O)N1CCN(C(=O)c2cnc3ccc(F)cc3c2-c2ccc(C3(C#N)CC3)cc2)CC1 [Compound 118] | – | – | – | – |
| 1130 ng·h/mL | – | 1.14 L/kg | 2760 ng·h/mL | 1470 ng/mL | 49% | CS(=O)(=O)N1CCN(C(=O)c2cnc3ccc(Cl)cc3c2-c2ccc(C3(C#N)CC3)cc2)CC1 [Compound 119] | – | – | – | – |
| 459 ng·h/mL | 1100 ng/mL | 1.39 L/kg | 720 ng·h/mL | 471 ng/mL | 31% | CS(=O)(=O)N1CCN(C(=O)c2cnc3ccc(Cl)cc3c2N2CCC(C#N)(c3ccccc3)CC2)CC1 [Compound 109] | – | – | – | – |
| 661 ng·h/mL | 1800 ng/mL | 0.72 L/kg | 844 ng·h/mL | 1110 ng/mL | 30% | CN(C)C(=O)N1CCN(C(=O)c2cnc3ccc(F)cc3c2N2CCC(C#N)(c3ccccc3)CC2)CC1 [Compound 108] | – | – | – | – |

Continued, compound first:

| Compound | AUC(0-inf) ([1]; iv 2 mg/kg) | Cmax [1, 6] | Vd ([1]; iv 2 mg/kg) | AUC(0-inf) ([1]; po 10 mg/kg) | Cmax ([1]; po 10 mg/kg) | bioavailability [1] | tolerability [2] | tolerability [3] | RLM [4] | solubility [5] |
| --- | --- | --- | --- | --- | --- | --- | --- | --- | --- | --- |
| CS(=O)(=O)N1CCN(C(=O)c2cnc3ccc(F)cc3c2N2CCC(C#N)(c3ccccc3)CC2)CC1 [Compound 86, 1-(6-Fluoro-3-(4-(methylsulfonyl)piperazine-1-carbonyl)quinolin-4-yl)-4-phenylpiperidine-4-carbonitrile] | – | – | – | – | – | – | no significant weight loss or abnormal clinical signs and no mortality was observed | – | – | – |
| CS(=O)(=O)N1CCN(C(=O)c2cnc3ccc(F)cc3c2-c2ccc(C3(C#N)CC3)cc2)CC1 [Compound 91, 1-(4-(6-Fluoro-3-(4-(methylsulfonyl)piperazine-1-carbonyl)quinolin-4-yl)phenyl)cyclopropanecarbonitrile] | – | – | – | – | – | – | – | no significant weight loss or abnormal clinical signs and no mortality was observed | – | – |
| N#CC1(c2ccccc2)CCN(c2c(C(=O)N3CCN(C(=O)C4CC4)CC3)cnc3ccc(F)cc23)CC1 [Compound 78] | 505 ng·h/mL | 1500 ng/mL | 1.2 L/kg | 227 ng·h/mL | 215 ng/mL | 9% | – | – | – | – |
| CC(C)CCn1c(CN2CCN(C(=O)C3CC3)CC2)nc2c1c(=O)n(C)c(=O)n2C [Compound 4] | – | – | – | – | – | – | – | – | > 30 min | > 62 µg/mL |
